The target in one assay is T1, M1 muscarinic receptor (Homo sapiens, UniProt P11229).
T1 construct: expressed in transfected cells; host or cells: CHO cells, transiently co-transfected with pCMV R-CEPIAer
T1 sequence (P11229 1-460): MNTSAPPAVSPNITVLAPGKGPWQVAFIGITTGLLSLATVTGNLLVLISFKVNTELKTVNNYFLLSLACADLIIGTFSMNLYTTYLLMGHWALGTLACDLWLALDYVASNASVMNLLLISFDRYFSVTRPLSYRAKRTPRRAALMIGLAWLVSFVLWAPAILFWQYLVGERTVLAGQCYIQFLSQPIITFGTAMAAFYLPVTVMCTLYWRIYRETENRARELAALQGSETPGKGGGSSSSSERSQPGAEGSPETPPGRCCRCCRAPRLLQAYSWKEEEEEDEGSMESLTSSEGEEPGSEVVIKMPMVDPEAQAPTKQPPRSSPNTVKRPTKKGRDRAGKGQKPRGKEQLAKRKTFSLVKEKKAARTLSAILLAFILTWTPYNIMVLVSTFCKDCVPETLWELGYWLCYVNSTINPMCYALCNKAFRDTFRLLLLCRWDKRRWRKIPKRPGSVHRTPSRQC
Nature of the assay: R-CEPIAer ER calcium assay, CHO cells transiently transfected with M1 receptor. In kind it is cell-based. How it is done:
[Worded in the source for another target; used here, by the source, with some conditions changed.] (§1) The binding of antagonists to Gq-coupled receptors was determined by measuring IP3-mediated calcium depletion from the endoplasmic reticulum (ER). This was accomplished using CHO-K1 cells stably transfected with human M3 muscarinic acetylcholine receptor (CEM3000000, cDNA Resource Center, Bloomsburg University) and R-CEPIAer, a low affinity ER-targeted calcium indicator fluorescent protein ([Suzuki et al., 2014]). R-CEPIAer reporting of ER calcium concentration was assessed using 564 nm excitation light (>590 long-pass emission) at 20 second intervals on a Nikon swept-field confocal microscope using slit-scan mode, 2x2 Binning, and 100 millisecond frames. F/Fmax was fluorescence intensity normalized to maximal fluorescence intensity during the experiment. The response of cells to Gq-coupled receptor agonist were measured as the change in F/Fmax (ΔF/Fmax) from preagonist value to fluorescence minimum during agonist application (that occurs by IP3-mediated ER calcium depletion). […] Perfusion of each agonist application was for 2 min, while the antagonist overlapped and preceded the second agonist application by 3 min. […] IC50 was calculated by assaying fractional inhibition using a dose-response of antagonist concentrations (i.e. Figure 1D ). […]

The target in a further assay is T2, M5 muscarinic receptor (Homo sapiens, UniProt P08912).
T2 construct: expressed in transfected cells; host or cells: CHO cells, transiently co-transfected with pCMV R-CEPIAer
T2 sequence (P08912 1-532): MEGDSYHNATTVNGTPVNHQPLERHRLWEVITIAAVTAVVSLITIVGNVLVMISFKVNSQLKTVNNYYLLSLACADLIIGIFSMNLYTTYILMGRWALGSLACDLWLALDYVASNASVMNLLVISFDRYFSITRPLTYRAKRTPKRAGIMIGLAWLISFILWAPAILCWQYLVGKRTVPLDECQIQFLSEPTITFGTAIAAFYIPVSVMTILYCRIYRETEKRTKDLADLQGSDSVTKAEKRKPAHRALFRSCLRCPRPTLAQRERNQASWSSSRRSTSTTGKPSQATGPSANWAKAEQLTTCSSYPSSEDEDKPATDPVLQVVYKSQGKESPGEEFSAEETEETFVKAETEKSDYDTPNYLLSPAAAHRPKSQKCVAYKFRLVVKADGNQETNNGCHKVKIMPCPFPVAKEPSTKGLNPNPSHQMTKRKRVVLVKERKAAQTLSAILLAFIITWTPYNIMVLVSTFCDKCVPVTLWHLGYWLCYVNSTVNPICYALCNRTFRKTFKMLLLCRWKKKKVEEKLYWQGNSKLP
The assay can be described thus: R-CEPIAer ER calcium assay, CHO cells transiently transfected with M5 receptor. Format: cell-based. How it is done: [Worded in the source for another target; used here, by the source, with some conditions changed.] as §1

Assay [1] has as its target T3, human P2Y1 purinergic receptor (Homo sapiens, UniProt P47900).
T3 construct: expressed in transfected cells; host or cells: CHO cells, transiently co-transfected with pCMV R-CEPIAer
The assay can be described thus: R-CEPIAer ER calcium assay, CHO cells co-transfected with P2Y1 receptor. The conditions noted are these: 5 μM UCL 1684, 1 μM ATP, read-out: Fractional inhibition of second ATP response. Format: cell-based. How it is done: [Worded in the source for another target; used here, by the source, with some conditions changed.] as §1

The subject of the next assay is mouse trachea. The assay can be described thus: Isometric tracheal tension measurement (organ bath). Here is the method:
Mice used in these studies were BALB/C mice from Jackson Labs. All animal procedures were reviewed and approved by the University of Texas Health Science Center at San Antonio Institutional Animal Care and Use Committee. For tracheal constriction studies, animals were deeply anesthetized with isoflurane and then sacrificed by cervical dislocation. Isometric tracheal contraction measurements were performed as previously described ([Semenov et al., 2012]). Trachea were removed and surrounding tissues dissected in ice-cold physiologic saline solution (PSS) consisting of 119 mM NaCl, 4.7 mM KCl, 2.0 mM CaCl2, 1.0 mM KH2PO4, 1.17 mM MgSO4, 18 mM NaHCO3, 0.026 mM EDTA, 11 mM glucose, and 12.5 mM sucrose. Trachea were cut below the pharynx and above the primary bronchus bifurcation. Two metal wires, attached to a force transducer and micrometer (Radnoti, LLC), were threaded into the lumen of the trachea. Trachea were placed into an oxygenated organ bath (95% O2, 5% CO2), at 37°C, pH 7.35 (after bubbling with 95% O2–5% CO2). Tracheal resting tension was readjusted to 1 gram over 1 h and then challenged with 67 mM potassium PSS with NaCl adjusted to 56.7 mM to maintain proper osmolarity (KPS). Trachea were challenged two or more times until reproducible contractile responses were achieved. All subsequent experimental drug responses were normalized to the KPS response. Bladder measurements were conducted in a similar manner as trachea with identical solutions. The bladder was excised and formed into a ring by cutting anterior and posterior portions before mounting on metal wires for force measurements. For the aorta preparation, the ascending thoracic aorta was excised and cut into 2–3 mm sections before mounting on wires for force measurements.

A further assay deals with SK2. Set-up: method as in Benton D.C. et al., 2013. Particulars: 125I-Apamin competition; ref Benton D.C. et al., 2013; read-out: Ki, SK2 channels; cited from earlier work.
A further assay addresses SK3. Set-up: method as in Benton D.C. et al., 2013. The conditions noted are these: 125I-Apamin competition; ref Benton D.C. et al., 2013; read-out: Ki, SK3 channels; cited from earlier work.

T3 sequence (P47900 whole entry): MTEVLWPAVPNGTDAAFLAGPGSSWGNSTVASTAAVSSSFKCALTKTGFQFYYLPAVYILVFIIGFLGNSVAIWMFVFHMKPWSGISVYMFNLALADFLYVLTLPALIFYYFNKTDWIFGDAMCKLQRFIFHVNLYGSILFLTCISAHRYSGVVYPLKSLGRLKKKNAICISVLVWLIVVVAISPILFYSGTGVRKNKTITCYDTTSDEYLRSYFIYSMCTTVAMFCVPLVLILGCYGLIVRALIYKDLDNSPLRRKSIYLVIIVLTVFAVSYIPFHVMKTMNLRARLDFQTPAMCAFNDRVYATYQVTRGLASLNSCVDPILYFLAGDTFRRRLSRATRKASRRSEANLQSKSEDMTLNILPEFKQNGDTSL

Turning to `c1cc2cc(c1)C[n+]1ccc(c3ccccc31)NCc1ccc(cc1)CNc1cc[n+](c3ccccc13)C2` [UCL 1684, 6,12,19,20,25,26-Hexahydro-5,27:13,18:21,24-trietheno-11,7-metheno-7H-dibenzo [b,n] [1,5,12,16]tetraazacyclotricosine-5,13-diium dibromide], the half-maximal inhibitory concentration (IC50) (as a rule, the point on the concentration scale where inhibition reaches its midpoint) stood at 120 nM on M1 muscarinic receptor; 520 nM on M5 muscarinic receptor; 430 nM in the assay on mouse trachea (Mus musculus, read-out: IC50, relaxation of carbachol-precontracted trachea). Besides, the “Hill slope of inhibition curve, M1 receptor” value on M1 muscarinic receptor (0.5 μM carbachol) is 0.67 ± 0.5. Besides, on M5 muscarinic receptor (0.5 μM carbachol), the “Hill slope of inhibition curve, M5 receptor” value amounted to 1.4 ± 0.17. Moreover, in assay [1], the inhibition (in general, the drop in the measured response relative to a control, in per cent) at 5 µM amounted to 6.7 ± 6%. In addition, in the assay on mouse trachea, the “Relaxation of precontracted trachea” value is “near complete relaxation”. Further, the “Relaxation response of trachea, single dose” value in the assay with mouse trachea (3.5 μM, 0.5 μM carbachol) was found to be 95.4 ± 2.4. The “Reduction of carbachol-evoked ASM contractions” value in the assay on mouse trachea (carbachol-evoked) is over 90%. In addition, the “Washout needed to restore tracheal responses to cholinergic agonists” value in the assay with mouse trachea (data not shown) was “at least an hour of washout”. In addition, the Ki (in general, a dissociation constant, usually derived from enzyme kinetics or from competition with a known ligand) at SK2 was 1 nM; on SK3, 7.7 nM.

The values above are taken from publication PMC7525093, “Bis-Quinolinium Cyclophane Blockers of SK Potassium Channels Are Antagonists of M3 Muscarinic Acetylcholine Receptors” (Frontiers in Pharmacology, 2020).
